# PMC8611036, “An integrated method for optimized identification of effective natural inhibitors against SARS-CoV-2 3CLpro” (Scientific Reports, 2021)
# Tests used:
# [1] = test system: SARS-CoV 3CLpro; format: biochemical; details: activity class by pIC50 threshold 6
# [2] = test system: SARS-CoV 3CLpro; details: SARS-CoV 3CLpro inhibitors (training set), ref: per compound, cited from earlier work; for pIC50: from literature IC50; for IC50: literature values
# [3] = molecular target: SARS-CoV-2 3CLpro (Severe acute respiratory syndrome coronavirus 2, UniProt P0DTD1); details: SARS-CoV pIC50 multiplied by similarity index (SI), training set compounds
SMILES,Inact.(<6)/Act.(>=6) [1],pIC50 [2],IC50 [2],SI*pIC50 [3]
CCC(C)c1ccc(N(C(=O)c2ccco2)C(C(=O)NC2CCCC2)c2cccnc2)cc1 (stereo not shown) [CMP144],Inact. (Inact.(<6)),5.658,2.2 µM,5.809
CC1=C(C(=O)OCCc2ccccc2)C(c2ccccc2[N+](=O)[O-])C2=C(CCCC2=O)N1 (stereo not shown) [CMP102],Inact. (Inact.(<6)),5.602,2.5 µM,5.754
CN(C)c1ccc(C(=O)N[C@@H](Cc2ccccc2)C(=O)Nc2ccc([N+](=O)[O-])cc2Cl)cc1 [CMP119],Act. (Act.(>=6)),7.222,0.06 µM,7.374
O=c1cc(-c2ccc(O)c(O)c2)oc2cc(O)cc(O)c12 [CMP153],Inact. (Inact.(<6)),4.699,20 µM,4.851
CC(C)c1ccc(N(C(=O)c2ccco2)C(C(=O)NC(C)(C)C)c2cccnc2)cc1 (stereo not shown) [CMP182],Inact. (Inact.(<6)),4.551,28.1 µM,4.7028
O=C(Cc1cncc(Cl)c1)c1cccs1 [CMP181],Act. (Act.(>=6)),6.301,0.5 µM,6.453
COc1ccc(-c2cc(=O)c3c(O)cc(O)c(-c4cc(-c5cc(=O)c6c(O)cc(OC)cc6o5)ccc4OC)c3o2)cc1 [CMP155],Inact. (Inact.(<6)),4.416,38.4 µM,4.568
O=C(Cc1nccs1)c1nccs1 [CMP178],Inact. (Inact.(<6)),4.398,40 µM,4.55
O=c1[nH]c2cc(Cl)cc(Cl)c2c(O)c1Sc1nnnn1-c1ccc(O)cc1 [CMP110],Inact. (Inact.(<6)),4.975,10.6 µM,5.127
COc1cc(O)c2c(=O)cc(-c3ccc(OC)c(-c4c(O)cc(O)c5c(=O)cc(-c6ccc(O)cc6)oc45)c3)oc2c1 [CMP150],Inact. (Inact.(<6)),4.495,32 µM,4.6468
CSc1[nH]nc(NC(=O)c2cccs2)c1S(=O)(=O)c1ccccc1 [CMP177],Inact. (Inact.(<6)),4.824,15 µM,4.976
O=C1Nc2ccc(S(=O)(=O)N3CCCCC3)cc2C1=O [CMP145],Inact. (Inact.(<6)),5.352,4.45 µM,5.503
O=C1C(=O)N(c2cccc3ccccc23)c2ccc(I)cc21 [CMP117],Inact. (Inact.(<6)),5.959,1.1 µM,6.11
Cc1coc2c1C(=O)C(=O)c1c-2ccc2c1CCCC2(C)C [CMP130],Inact. (Inact.(<6)),5.796,1.6 µM,5.948
CC(C)C1=CC2=CC[C@@H]3[C@](C)(CCC[C@@]3(C)C(=O)O)[C@H]2CC1 [CMP124],Inact. (Inact.(<6)),3.723,189 µM,3.875
CC1CCN(S(=O)(=O)c2ccc3c(c2)C(=O)C(=O)N3)CC1 [CMP146],Inact. (Inact.(<6)),5.928,1.18 µM,6.08
CCOC(=O)/C=C/[C@H](C[C@@H]1CCNC1=O)NC(=O)[C@H](Cc1ccccc1)NC(=O)[C@@H](NC(=O)[C@H](CO)NC(=O)OC(C)(C)C)C(C)C [CMP180],Inact. (Inact.(<6)),4.824,15 µM,4.976

SMILES,Inact.(<6)/Act.(>=6) [1],pIC50 [2],IC50 [2],SI*pIC50 [3]
C=C(N[C@@H](CC(C)C)C(=O)N[C@@H](CC1CCNC1=O)C(=O)Cn1[nH]c(=O)c2c([N+](=O)[O-])cccc2c1=O)[C@@H](NC(=O)[C@H](C)NC(=O)O)[C@@H](C)OCc1ccccc1 (stereo partly shown) [CMP101],Act. (Act.(>=6)),6.222,0.6 µM,6.374
COc1ccc(C(c2c(O)c3cc(C)ccc3oc2=O)c2c(O)c3cc(C)ccc3oc2=O)cc1 [CMP105],Inact. (Inact.(<6)),5.02,9.56 µM,5.171
CCOC(=O)/C=C/[C@H](C[C@@H]1CCNC1=O)NC(=O)[C@H](CC(C)C)NC(=O)[C@@H](NC(=O)[C@H](CO)NC(=O)OC(C)(C)C)C(C)C [CMP179],Inact. (Inact.(<6)),5,10 µM,5.152
O=C(Oc1cncc(Cl)c1)c1cc2ccccc2oc1=O [CMP162],Act. (Act.(>=6)),6.959,0.11 µM,7.11
O=C(Oc1ccc(S(=O)(=O)c2ccc(OC(=O)C(Cl)=C(Cl)Cl)cc2)cc1)C(Cl)=C(Cl)Cl [CMP137],Act. (Act.(>=6)),6.046,0.9 µM,6.198
COc1cc(C=NNC(=O)C(=Cc2ccccc2)NC(=O)c2ccccc2)cc(OC)c1O [CMP123],Inact. (Inact.(<6)),4.113,77.1 µM,4.265
COc1ccccc1/N=C/c1nc(-c2ccccc2)oc1OC(C)=O [CMP113],Inact. (Inact.(<6)),5.481,3.3 µM,5.6333
O=c1cc(-c2ccc(O)cc2)oc2cc(O)cc(O)c12 [CMP152],Inact. (Inact.(<6)),3.552,281 µM,3.704
Cc1c(O)c(O)cc2c1CC=C1[C@@]2(C)CC[C@@]2(C)[C@@H]3C[C@](C)(C(=O)O)CC[C@]3(C)CC[C@]12C [CMP161],Inact. (Inact.(<6)),4.664,21.7 µM,4.816
CCOC(=O)/C=C/[C@H](C[C@@H]1CCNC1=O)NC(=O)[C@H](CC=C(C)C)CC(=O)[C@@H](NC(=O)c1cc(C)on1)C(C)C [CMP160],Inact. (Inact.(<6)),4.1549,70 µM,4.307
CCOC(=O)C(=CNc1ccc(S(=O)(=O)c2ccc(/N=C/C(C(=O)OCC)=C(\O)OCC)cc2)cc1)C(=O)OCC [CMP139],Inact. (Inact.(<6)),4.495,32 µM,4.6468
CC(C)c1cc2c(cc1O)[C@@]1(C)CCC[C@@](C)(CO)[C@@H]1CC2 [CMP173],Inact. (Inact.(<6)),3.656,221 µM,3.808
CCn1c(NCc2ccc(N3N=C(c4ccccc4)CC3c3ccccc3)cc2)nc2ccccc21 (stereo not shown) [CMP114],Inact. (Inact.(<6)),5.076,8.4 µM,5.228
CC1=C(O)C(=O)C=C2C1=CC=C1[C@@]2(C)CC[C@@]2(C)[C@@H]3C[C@@H](C)C(=O)C[C@]3(C)CC[C@]12C [CMP126],Inact. (Inact.(<6)),5.004,9.91 µM,5.156
CCOC(=O)C(C#N)=CNc1ccc(S(=O)(=O)c2ccc(NC=C(C#N)C(=O)OCC)cc2)cc1 [CMP122],Inact. (Inact.(<6)),4.796,16 µM,4.948
Cc1coc2c1C(=O)C(=O)c1c-2ccc2c1CCCC2(C)CO (stereo not shown) [CMP131],Inact. (Inact.(<6)),4.971,10.7 µM,5.122
COc1cc(C[S+]([O-])c2nc3cccnc3s2)oc(=O)c1 (stereo not shown) [CMP109],Inact. (Inact.(<6)),5.143,7.2 µM,5.294
